# Measured values published in PubChem BioAssay (NCI).
#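 Where inhibition never reached the appropriate level, the endpoint shown equals the highest concentration tested. Otherwise, values were interpolated linearly from a five-concentration, 48-hour dose response in 96-well plates. The concentration for 50% growth inhibition is given as GI50. At the TGI there is no net growth.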
# Key:
# Experiment in all cases: NCI anticancer screen, dose series, 48 h
# A549 NSCLC = tested on: A549 NSCLC
# HCT-116 colon = tested on: HCT-116 colon
# MDA-N = tested on: MDA-N
# MOLT-4 leukemia = tested on: MOLT-4 leukemia
# NCI-H226 lung = tested on: NCI-H226 lung
# NCI/ADR-RES ovarian = tested on: NCI/ADR-RES ovarian
# OVCAR-3 ovarian = tested on: OVCAR-3 ovarian
# SR leukemia = tested on: SR leukemia
# TK-10 renal = tested on: TK-10 renal
# UACC-62 melanoma = tested on: UACC-62 melanoma
SMILES,TGI (A549 NSCLC),TGI (HCT-116 colon),TGI (MDA-N),TGI (MOLT-4 leukemia),TGI (NCI-H226 lung),TGI (NCI/ADR-RES ovarian),TGI (OVCAR-3 ovarian),TGI (SR leukemia),TGI (TK-10 renal),TGI (UACC-62 melanoma),GI50 (HCT-116 colon),GI50 (MOLT-4 leukemia),GI50 (NCI-H226 lung),GI50 (NCI/ADR-RES ovarian),GI50 (OVCAR-3 ovarian),GI50 (SR leukemia),GI50 (TK-10 renal),GI50 (UACC-62 melanoma)
CNC1Cc2c[nH]c3cccc(c23)C12C=C(C)C(=O)O2 (stereo not drawn),> 100 µM,> 100 µM,> 100 µM,> 100 µM,> 100 µM,> 100 µM,> 100 µM,> 100 µM,> 100 µM,> 100 µM,–,–,–,–,–,–,–,–
Cc1cc2c(c(O)c1-c1c(C)cc(O)c3c1C(=O)C=CC3=O)C(=O)C=CC2=O,52.4 µM,–,4.03 µM,0.375 µM,73.5 µM,13.8 µM,5.99 µM,0.265 µM,3.12 µM,4.98 µM,–,–,–,–,–,–,–,–
C[C@@H]1C(=O)O[C@H]1[C@H](O)CO,> 100 µM,> 100 µM,> 100 µM,> 100 µM,–,> 100 µM,> 100 µM,–,> 100 µM,> 100 µM,–,–,–,–,–,–,–,–
C[Si](C)(C)c1ccc(-c2c3ccc(-c4cc(Br)cc(Br)c4)nc3nc3nc(-c4cc(Br)cc(Br)c4)ccc23)cc1,> 100 µM,> 100 µM,> 100 µM,–,> 100 µM,> 100 µM,> 100 µM,–,> 100 µM,> 100 µM,–,–,–,–,–,–,–,–
COc1cc(/C=C2\N=C(c3ccccc3)N(c3ccc(C(=O)c4ccccc4)cc3N3C(=O)/C(=C/c4ccc(O)c(OC)c4)N=C3c3ccccc3)C2=O)ccc1O,62.7 µM,23.2 µM,40 µM,15.3 µM,–,89.5 µM,8.7 µM,33.9 µM,51.9 µM,30.8 µM,–,–,–,–,–,–,–,–
O=C1c2cccnc2C(=O)c2c1c(C(=O)OCCN1CCCCC1)c1ccccn21,–,1.95 µM,–,2.21 µM,0.0867 µM,1.07 µM,2.81 µM,0.0828 µM,0.43 µM,0.069 µM,0.041 µM,0.162 µM,0.0135 µM,0.0331 µM,0.172 µM,0.00698 µM,0.0978 µM,0.0121 µM
C=C1C(=O)O[C@@H]2/C=C(\C)CC/C=C(\C)CC[C@@]12O,27.1 µM,6.69 µM,6.42 µM,6.15 µM,59.2 µM,41.6 µM,6.43 µM,10.8 µM,3.42 µM,23.6 µM,–,–,–,–,–,–,–,–
CCCCCCCCCCCCCC1=C(O)C(=O)C(CC2=C(O)C(=O)C(CCCCCCCCCCCCC)=C(O)C2=O)=C(O)C1=O,> 100 µM,> 100 µM,> 100 µM,–,> 100 µM,–,> 100 µM,> 100 µM,> 100 µM,> 100 µM,–,–,–,–,–,–,–,–
CC(=O)O[C@H]1CC[C@H]2[C@@H]3CCC4=CC(=O)C=C[C@]4(O)[C@H]3CC[C@]12C,> 87.9 µM,> 100 µM,> 60.9 µM,25.7 µM,> 96.7 µM,46.2 µM,> 100 µM,5.1 µM,> 100 µM,> 90.2 µM,–,–,–,–,–,–,–,–
CC(C)(C)c1ccc2c(c1)C#Cc1cc(C(C)(C)C)ccc1OCCCO2,> 100 µM,> 100 µM,> 100 µM,> 100 µM,> 100 µM,> 100 µM,> 100 µM,–,> 100 µM,> 100 µM,–,–,–,–,–,–,–,–
CC(=O)Nc1cccc(N2C(=O)/C(=C\c3cccc(Oc4ccccc4)c3)S(=O)(=O)C2c2ccccc2)c1 (stereo not drawn),> 100 µM,> 100 µM,> 100 µM,62.6 µM,> 100 µM,> 100 µM,> 100 µM,58.3 µM,> 100 µM,> 100 µM,–,–,–,–,–,–,–,–
CCCCCCCCCCCCCCCCCCNc1ccn(C2OC(CO)C(OP(=O)(O)OCC(O)COP(=O)(O)OCC3OC(n4cc(F)c(NCCCCCCCCCCCCCCCCCC)nc4=O)CC3O)C2O)c(=O)n1 (stereo not drawn),> 50 µM,> 50 µM,> 50 µM,–,> 50 µM,> 50 µM,> 50 µM,–,> 50 µM,> 50 µM,–,–,–,–,–,–,–,–
Nc1ccc(O)c2c1C(=O)c1c(N)ccc(O)c1C2=O,> 100 µM,> 100 µM,–,> 100 µM,–,–,> 100 µM,–,> 100 µM,> 100 µM,–,–,–,–,–,–,–,–
CN(Cc1cn(O)c2nc(=N)nc(N)c-2n1)c1ccc(C(=O)NC23CC4CC(CC(C4)C2)C3)cc1,–,> 100 µM,> 100 µM,> 100 µM,> 100 µM,> 100 µM,> 100 µM,> 100 µM,> 100 µM,> 100 µM,–,–,–,–,–,–,–,–
CC(C)(C)OC(=O)N1C(OP(=O)(Oc2ccccc2)Oc2ccccc2)=CSc2ccccc21,> 100 µM,> 100 µM,> 100 µM,66 µM,> 100 µM,> 100 µM,> 100 µM,> 100 µM,> 100 µM,> 100 µM,–,–,–,–,–,–,–,–
CCOC(=O)C1(C/C=C/CCl)CCCC1=O (stereo not drawn),49.4 µM,34.9 µM,35.1 µM,> 100 µM,36.2 µM,37.2 µM,–,–,68.4 µM,30.2 µM,–,–,–,–,–,–,–,–
S=c1c2[nH]cnc2ncn1CCSC1=NC=NC2=NC=NC21 (stereo not drawn),> 100 µM,> 100 µM,> 100 µM,> 100 µM,> 100 µM,> 100 µM,> 100 µM,> 100 µM,> 100 µM,> 100 µM,–,–,–,–,–,–,–,–
